pIC50: −log10 of the molar value. “Also recorded” adds a separate entry of the source. Read-outs that look alike come from different tables or passages of the source.
Key:
Ehrlich Carcinoma cells = experiment: Cytotoxicity in vitro: 14C precursor incorporation in Ehrlich Carcinoma cells (Example 10); assay type: cell-based; details: for pIC50: Ehrlich, read-out: ID50 (14C incorporation)
Source text: (§1) The antineoplastic activity of the compounds of the invention has been investigated by testing the compounds of the chemical group "in vivo" against experimental rodent tumors such as Crocker's sarcoma (S180), solid-type Ehrlich carcinoma (STE), kreb's ascites tumor (Kr2), all maintained in mice H, Gardner lymphosarcoma (LsG, C3H mice), P388 and L1210 leukemias (DBA2 mice), Zajdela ascites hapatoma (ZAH, Wistar rats), Yoshida ascites reticulosarcoma (Y, Wistar rats) and B16 melanoma (C57B16 mice) in experiments according to Jelinek, V. (Neoplasma 12, 469 (1969); ibid. 7, 146 (1960) and "in vitro" experiments using radioactive precursors of nucleic acids and proteins according to Miko, M. et al. (Cancer Res. 39, 4242 (1979); Neoplasma 26, 449 (1979); ibid. 16, 161--1969) with minor modifications (Mattern J.: Studies on the Drug Sensitivity of Short Term Cultured Tumor Cell Suspensions. In "Human Tumors in Short Term Culture" (Dendy, P. P. ed.), p. 301, Academic Press 1976). Therapeutic synergism has been studied by the method of Carter, W. H. et al. (cf. Cancer Res. 42, 2963--1982).
The degree of influence on the incorporation of ^14 C from adenine-^14 C and valine-^14 C to the fraction of Ehrlich Carcinoma cells insoluble in trichloroacetic acid serves as the measure of cytotoxicity. The value ID50 is the concentration of a cytostatic that reduces the ^14 C incorporation down to 50% of the non-influencedcontrol cells.

Yoshida tumor [1] = experiment: Survival of rats with implanted Yoshida tumor (Example 6); assay type: in vivo, female Wistar rats; details: Wistar rats
Source text: as §1
(§2) Additionally, the compounds of the present invention are useful in increasing survival time of the suitable biological subjects, namely mice and rats bearing tumors STE, ZAH and/or Y: because of the lethal nature of the test system employed, the antitumor effect of the compounds is illustrated by a side comparison of the survival time of treated animals (survival for a longer time) with the untreated control groups of animals (cf. Examples 5, 6, and 7). In these typical experiments, ten animals are in the experimental groups, and the treated groups of animals survive for a longer time than the untreated controls.
(§3) Fifty infantile female Wistar rats weighing approximately 60 g are divided into five groups: one control and four experimental ones, 10 animals each. A lethal dose of the tumor ascites from Zajdel ascitic hepatoma is implanted intraperitoneally in all the animals. The experimental groups are treated with the substance Ia in water suspension. The suspension contains the substance Ia in such an amount that a dose of 0.4 or 0.2 ml of the suspension p.o. is equal to a dose of 200 or 100 mg Ia/Kg. This dose is applied to the experimental animals once a day, five times altogether, starting on the first day after the implantation.

[2] = tested on: Yoshida ascitic tumor cells; experiment: Cytotoxicity in vitro: initial velocity of 3H/14C precursor incorporation in Yoshida ascitic tumor cells (Example 11); assay type: cell-based; details: for pIC50: Rattus norvegicus, YOSHIDA
Source text: as §1
(§4) In analogous experiments, the degree of influence on the initial velocity of the incorporation of ^3 H from 5-iodo-2'-deoxy-(6-^3 H)uridine or that of ^14 C from a mixture of L-(U-^14 C)-aminoacids to the fraction of Yoshida ascitic tumor cells insoluble in trichloroacetic acid serves as the measure of cytotoxicity. The value IC50 is the concentration of a substance that reduces the initial velocity of the ^3 H or ^14 C incorporation down to 50% of the noninfluenced control cells.

Yoshida tumor [3] = experiment: Survival of rats with implanted Yoshida tumor (Example 7); assay type: in vivo, female Wistar rats; details: Wistar rats
Source text: as §1, §2, §3

Zajdel ascitic hepatoma [4] = experiment: Survival of rats with implanted Zajdel ascitic hepatoma, comparison with 6-mercaptopurine (Example 8); assay type: in vivo, female Wistar rats; details: for Period of survival (% of control): Wistar rats; for antitumor effect / average period of survival vs non-treated control: in words (Example 8)
Source text: as §1, §3

Yoshida ascitic sarcoma = experiment: Therapeutic synergism with Benfluron, survival of rats with Yoshida ascitic sarcoma (Example 9); assay type: in vivo, female Wistar rats; details: for Average period of survival (days): geometric average (fiducial limits P=0.95)
Source text: as §1
One hundred and twenty seven infantile female Wistar rats weighing 50-60 g are divided into sixteen groups: one control group of 25 animals and fifteen experimental groups of 6 to 7 animals. A lethal dose of the tumor ascites from Yoshida ascitic sarcoma is implanted intraperitoneally in all the animals. The experimental groups are treated with the substance Ia in water suspension, water solution of a cytostatic Benfluron (CAS 80427-58-3), or a combination of both the substances. The suspension or solution contains the substances in such a concentration that doses of 0.4 or 0.2 and 0.1 ml of the suspension/solution p.o. are equal to doses of 200 or 100 and 50 mg Ia/kg or to doses of 160, 80 or 40 mg of Benfluron/kg. Doses of the substance Ia are administered to the experimental animals once a day, four times altogether, starting on the first day after the tumor implantation. Benfluron is administered only once, on the fourth day after the tumor implantation, 7 hours after the last dose of the substance Ia.

[5] = literature; cited from earlier work
Ehrlich tumor (STE) = experiment: Antitumor activity against implanted Ehrlich tumor (STE) in mice, tumor weight (Example 4); assay type: in vivo, female mice H; details: mice H
Source text: as §1
Sixty female mice H weighing approximately 20 g are divided into three groups: one control group and two experimental groups of 20 animals each. A lethal dose of the Crocker tumor (S180) homogenate is implanted subcutaneously in all the animals. The experimental groups are treated with the substance Ia in water suspension. The suspension contains the substance Ia in such an amount that a dose 0.4 or 0.2 ml of the suspension p.o. is equal to a dose 200 or 100 mg Ia/kg. This dose is administered to the experimental animals once a day, eight times altogether, starting on the fifth day after the implantation. On the fourteenth day after the implantation, a half of the animals in each group is sacrificed in ether anaesthesia, and tumors are removed and weighed. The remaining animals are left to monitor the time of death.

Crocker tumor (S180) = experiment: Antitumor activity against Crocker tumor (S180) in mice, tumor weight (Example 3); assay type: in vivo, female mice H; details: S180, mice H, p.o. 200 or 100 mg/kg once a day, eight times; day 14
Source text: as §1
Sixty female mice H weighing approximately 20 g are divided into three groups: one control group and two experimental groups of 20 animals each. A lethal dose of the Crocker tumor (S180) homogenate is implanted subcutaneously in all the animals. […]

[6] = Toxicity and tolerability by oral route; assay type: in vivo, small rodents; rat; mouse; man
Source text: The compounds described herein can be administered to suitable biological subjects, particularly mammals, for their therapeutic antitumor effects, by conventional modes of administration alone, but preferably as active ingredients with any conventional suitable non-toxic pharmaceutical carrier, dissolved or suspended, for example, in water, saline, polyethylene or polypropylene alcohols, etc. The administration is preferably by the oral route. […]. The dosage administered will be dependent upon the type of tumor for which treatment is desired, the type of biological subject involved, weight, body surface, localization of the tumor, its morphological type, the frequency of treatment, individual tolerance and responsiveness of each subject, etc; for example, by oral route, the prolonged administration of 100, 200 mg/kg daily appears to be well tolerated both in the rat and in the mouse. The assessment drawn from the biological tests is that doses of 20 mg/kg (e.g. about 740 mg/m^2) may be regarded as well tolerated in man.

Zajdel ascitic hepatoma [7] = experiment: Survival of rats with implanted Zajdel ascitic hepatoma (Example 5); assay type: in vivo, female Wistar rats; details: Wistar rats
Source text: as §1, with “2963--1982). […]” for “2963--1982).”

tumor cells = experiment: Comparison of cytotoxicity of Ia and Ib in vitro, precursor incorporation (Example 12); assay type: cell-based
Source text: as §1, §4
In analogous experiments, the following values of IC50 were determined: […]

[8] = precursor 5-iodo-2'-deoxy(6-3H)uridine, read-out: IC50 (initial velocity of 3H incorporation)
[9] = precursor L-(U-14C)aminoacids, read-out: IC50 (initial velocity of 14C incorporation)
[10] = precursor 5-iodo-2'-deoxy(6-3H)uridine (Example 12)
[11] = precursor L-(U-14C)aminoacids (Example 12)

Structure (SMILES): Nc1nc(S)c2[nH]cnc2n1 [2-amino-6-mercaptopurine, 2-Amino-6-mercaptopurine, reference compound]
- pIC50 (Ehrlich Carcinoma cells; precursor adenine-14C): < 3.22
- pIC50 (Ehrlich Carcinoma cells; precursor valine-14C): < 3.22

Structure (SMILES): Sc1ncnc2nc[nH]c12 [6-mercaptopurine, reference compound]
- Period of survival (% of control) (Yoshida tumor [1]; p.o. 5 × 20 mg/kg (Example 6)): 109 % of control
- Period of survival (% of control) (Yoshida tumor [1]; p.o. 5 × 40 mg/kg (Example 6)): 127 % of control
- pIC50 [2, 8]: < 2.00
- pIC50 [2, 9]: < 3.64
- Period of survival (% of control) (Yoshida tumor [3]; p.o. 5 × 20 mg/kg (Example 7)): 107 % of control
- Period of survival (% of control) (Yoshida tumor [3]; p.o. 5 × 40 mg/kg (Example 7)): 156 % of control
- Period of survival (% of control) (Zajdel ascitic hepatoma [4]; p.o. 5 × 20 mg/kg (Example 8)): 101 % of control
- Period of survival (% of control) (Zajdel ascitic hepatoma [4]; p.o. 5 × 40 mg/kg (Example 8)): 105 % of control
- antitumor effect / average period of survival vs non-treated control (Zajdel ascitic hepatoma [4]): ineffective; also recorded: inactive

Structure (SMILES): CN(C)CCOc1cc2c(c3ccccc13)-c1ccccc1C2=O.Cl [Benfluron, 5-[2-(N, N-Dimethylamino)ethoxy]-7-oxo-7H-benzo(c)fluorene hydrochloride, reference compound]
- Average period of survival (% of control) (Yoshida ascitic sarcoma; Benfluron 40 mg/kg p.o. once): 104 % of control
- Average period of survival (days) (Yoshida ascitic sarcoma; Benfluron 40 mg/kg p.o. once): 7.67 (6.9; 8.6) days
- Average period of survival (% of control) (Yoshida ascitic sarcoma; Benfluron 80 mg/kg p.o. once): 104 % of control
- Average period of survival (days) (Yoshida ascitic sarcoma; Benfluron 80 mg/kg p.o. once): 7.61 (6.5; 8.9) days
- Average period of survival (% of control) (Yoshida ascitic sarcoma; Benfluron 160 mg/kg p.o. once): 106 % of control
- Average period of survival (days) (Yoshida ascitic sarcoma; Benfluron 160 mg/kg p.o. once): 7.79 (6.9; 8.8) days

Structure (SMILES): Nc1ncnc2c1ncn2C(=O)NCCCl [N-(2-chloroethyl)-6-aminopurine-9-carboxamide]
- biological activity [5]: did not exhibit any biological activity

Structure (SMILES): CCN(CC)C(=O)Nc1ncnc2nc[nH]c12 [N-(6-purinyl)-N', N'-diethylurea]
- antineoplastic action [5]: weak antineoplastic action

Structure (SMILES): O=C(NCCCl)Sc1ncnc2nc[nH]c12 [Substance Ia, 6-[N-(2-Chloroethyl)carbamoyl]thiopurine]
- Average period of survival (% of control) (Yoshida ascitic sarcoma; Ia 4 × 50 mg/kg p.o.): 125 % of control
- Average period of survival (days) (Yoshida ascitic sarcoma; Ia 4 × 50 mg/kg p.o.): 9.20 (7.6; 11.1) days
- Average period of survival (% of control) (Yoshida ascitic sarcoma; Ia 4 × 100 mg/kg p.o.): 149 % of control
- Average period of survival (days) (Yoshida ascitic sarcoma; Ia 4 × 100 mg/kg p.o.): 10.94 (9.0; 13.3) days
- Average period of survival (% of control) (Yoshida ascitic sarcoma; Ia 4 × 200 mg/kg p.o.): 121 % of control
- Average period of survival (days) (Yoshida ascitic sarcoma; Ia 4 × 200 mg/kg p.o.): 8.86 (7.4; 10.7) days
- survival vs control group (Yoshida ascitic sarcoma; Yoshida ascitic sarcoma, in words, over 29 days): survive longer
- Period of survival (% of control) (Yoshida tumor [1]; p.o. 5 × 100 mg/kg (Example 6)): 134 % of control
- Period of survival (% of control) (Yoshida tumor [1]; p.o. 5 × 200 mg/kg (Example 6)): 127 % of control
- Tumor weight (% of control) (Ehrlich tumor (STE); p.o. 8 × 100 mg/kg): 80 % of control
- Tumor weight (% of control) (Ehrlich tumor (STE); p.o. 8 × 200 mg/kg): 70 % of control
- average values of the tumor weight vs non-treated control (Crocker tumor (S180)): Statistically significantly lower average values of the tumor weight
- pIC50 [2, 8]: 4.60
- pIC50 [2, 9]: 4.59
- effectiveness vs thioguanine and/or 6-mercaptopurine ([2]; Yoshida ascites tumor cells, in words): more effective
- Period of survival (% of control) (Yoshida tumor [3]; p.o. 5 × 100 mg/kg (Example 7)): 124 % of control
- Period of survival (% of control) (Yoshida tumor [3]; p.o. 5 × 200 mg/kg (Example 7)): 158 % of control
- LD50 ([6]; in vivo, small rodents, oral route): ≥ 3000 mg/kg
- toxicity ([6]; in words): practically non-toxic
- Period of survival (% of control) (Zajdel ascitic hepatoma [7]; p.o. 5 × 100 mg/kg): 117 % of control
- Period of survival (% of control) (Zajdel ascitic hepatoma [7]; p.o. 5 × 200 mg/kg): 126 % of control
- effectiveness vs thioguanine and/or 6-mercaptopurine (Ehrlich Carcinoma cells; Ehrlich ascites carcinoma cells, in words): more effective
- pIC50 (Ehrlich Carcinoma cells; precursor adenine-14C): 4.03
- pIC50 (Ehrlich Carcinoma cells; precursor valine-14C): 3.81
- pIC50 (tumor cells; [10]): 4.41
- pIC50 (tumor cells; [11]): 4.21
- Period of survival (% of control) (Zajdel ascitic hepatoma [4]; p.o. 5 × 100 mg/kg (Example 8)): 120 % of control
- Period of survival (% of control) (Zajdel ascitic hepatoma [4]; p.o. 5 × 200 mg/kg (Example 8)): 128 % of control
- antitumor effect / average period of survival vs non-treated control (Zajdel ascitic hepatoma [4]): statistically significantly higher average period of survival

Structure (SMILES): O=C(NCCCl)Oc1ncnc2nc[nH]c12 [Substance Ib, 6-[N-(2-Chloroethyl)carbamoyl]oxypurine]
- Period of survival (% of control) (Yoshida tumor [1]; p.o. 5 × 100 mg/kg (Example 6)): 100 % of control
- Period of survival (% of control) (Yoshida tumor [1]; p.o. 5 × 200 mg/kg (Example 6)): 83 % of control
- Tumor weight (% of control) (Ehrlich tumor (STE); p.o. 8 × 100 mg/kg): 76 % of control
- Tumor weight (% of control) (Ehrlich tumor (STE); p.o. 8 × 200 mg/kg): 81 % of control
- pIC50 (tumor cells; [10]): 4.26
- pIC50 (tumor cells; [11]): 4.10
